Measurements reported in publication PMC11674187, “Inhibitory Effects of Cenobamate on Multiple Human Cardiac Ion Channels and Possible Arrhythmogenic Consequences” (Biomolecules, 2024).
Values joined by “and” are separate entries in the source; they are usually repeats but may differ in a detail not shown here. Identical values can stand only once. Like-named read-outs stand apart in the source and are kept apart here.

Assays:
IKr (hERG) = conditions: read-out: apparent IC50 for IKr (hERG); used for further computations; ref [5] p. 10; cited from earlier work
hKv7.1 + minK = biological target: T1, hKv7.1 + minK (Homo sapiens, UniProt P51787); assay: Whole-cell patch-clamp on HEK293T cells, IKs; type: cell-based; conditions: for inhibition at 200 µM: HEK-293T
T1 construct: host or cells: HEK293T
T1 sequence (P51787 whole entry): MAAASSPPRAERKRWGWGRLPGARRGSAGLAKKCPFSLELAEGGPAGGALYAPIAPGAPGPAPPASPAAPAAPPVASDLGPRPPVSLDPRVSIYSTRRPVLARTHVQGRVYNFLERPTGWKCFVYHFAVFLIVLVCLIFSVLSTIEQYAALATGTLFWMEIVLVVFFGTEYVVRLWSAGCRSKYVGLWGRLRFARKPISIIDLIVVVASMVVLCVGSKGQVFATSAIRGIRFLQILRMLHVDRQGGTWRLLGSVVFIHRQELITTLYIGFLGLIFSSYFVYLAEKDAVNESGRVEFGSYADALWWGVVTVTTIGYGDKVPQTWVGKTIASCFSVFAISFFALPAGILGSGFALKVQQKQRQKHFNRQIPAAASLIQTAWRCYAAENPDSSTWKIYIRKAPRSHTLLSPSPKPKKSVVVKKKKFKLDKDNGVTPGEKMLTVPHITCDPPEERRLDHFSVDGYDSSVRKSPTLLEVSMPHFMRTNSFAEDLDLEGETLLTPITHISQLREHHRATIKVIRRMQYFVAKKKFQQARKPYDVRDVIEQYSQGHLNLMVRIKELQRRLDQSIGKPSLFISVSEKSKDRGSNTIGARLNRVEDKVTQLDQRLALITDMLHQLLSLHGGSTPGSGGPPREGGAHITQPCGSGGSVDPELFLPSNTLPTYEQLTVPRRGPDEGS
Method: (§1) Experiments were performed on HEK293T cell lines with persistent/inducible expression of different human cardiac ion channel isoforms: hNav1.5 and hKv7.1 + minK (Anaxon AG, Bern, Switzerland), hCav1.2 (α1c + β2 + α2δ1) (B’SYS GmbH, Witterswil, Switzerland), and hKv11.1 (hERG) (Cytocentrics Bioscience GmbH, Rostock, Germany). The cell lines were grown in standard conditions (37 °C, 5% CO2, 90% humidity) in DMEM:F12 medium (D8900, Sigma-Aldrich, Burlington, MA, USA) buffered with 15 mM HEPES, containing 3.15 g/L D-glucose and 0.055 g/L sodium pyruvate, supplemented with 1.2 g/L sodium bicarbonate, 10% fetal bovine serum (F2442, Sigma-Aldrich, Burlington, MA, USA), 2 mM L-glutamine (G7513, Sigma-Aldrich, Burlington, MA, USA), 1% penicillin–streptomycin (P4333, Sigma-Aldrich, Burlington, MA, USA), and with specific antibiotics for selection of transfected cells or induction of gene expression according to manufacturers’ instructions. The medium was changed every 2–3 days and the cells were passed weekly upon detachment with trypsin–EDTA solution. All cell culture media and solutions were sterile filtered with 0.22 μm polyvinylidene fluoride filters. Ncyte® vCardiomyocytes (Ncardia, Leiden, The Netherlands) were cultured in 24-well plates precoated with bovine fibronectin, following manufacturer’s instructions. For the experiments, cardiomyocytes were detached as described previously and plated on ϕ 10 mm glass coverslips, like the other cell lines.
Manual whole-cell patch-clamp experiments were performed at room temperature, with equipment as described in previous studies. Pipettes were pulled from Clark borosilicate glass capillaries with inner filament (GC150F-10, Harvard Apparatus, Holliston, MA, USA) and had typical resistances of 2–3 MΩ. Recordings were performed with a WPC-100 resistive feedback amplifier (ESF electronic, Göttingen, Germany) or an Axopatch 200B amplifier (Axon Instruments—Molecular Devices, San Jose, CA, USA) connected to a Digidata 1322A interface driven by the pClamp 8.2 Clampex module (Axon Instruments, part of Molecular Devices, San Jose, CA, USA). […]

hNav1.5 [1] = biological target: T2, hNav1.5 (Homo sapiens, UniProt Q14524); assay: Whole-cell patch-clamp on HEK293T cells, peak INa (standard, activation and inactivation protocols); type: cell-based
T2 construct: host or cells: HEK293T
T2 sequence (Q14524 whole entry): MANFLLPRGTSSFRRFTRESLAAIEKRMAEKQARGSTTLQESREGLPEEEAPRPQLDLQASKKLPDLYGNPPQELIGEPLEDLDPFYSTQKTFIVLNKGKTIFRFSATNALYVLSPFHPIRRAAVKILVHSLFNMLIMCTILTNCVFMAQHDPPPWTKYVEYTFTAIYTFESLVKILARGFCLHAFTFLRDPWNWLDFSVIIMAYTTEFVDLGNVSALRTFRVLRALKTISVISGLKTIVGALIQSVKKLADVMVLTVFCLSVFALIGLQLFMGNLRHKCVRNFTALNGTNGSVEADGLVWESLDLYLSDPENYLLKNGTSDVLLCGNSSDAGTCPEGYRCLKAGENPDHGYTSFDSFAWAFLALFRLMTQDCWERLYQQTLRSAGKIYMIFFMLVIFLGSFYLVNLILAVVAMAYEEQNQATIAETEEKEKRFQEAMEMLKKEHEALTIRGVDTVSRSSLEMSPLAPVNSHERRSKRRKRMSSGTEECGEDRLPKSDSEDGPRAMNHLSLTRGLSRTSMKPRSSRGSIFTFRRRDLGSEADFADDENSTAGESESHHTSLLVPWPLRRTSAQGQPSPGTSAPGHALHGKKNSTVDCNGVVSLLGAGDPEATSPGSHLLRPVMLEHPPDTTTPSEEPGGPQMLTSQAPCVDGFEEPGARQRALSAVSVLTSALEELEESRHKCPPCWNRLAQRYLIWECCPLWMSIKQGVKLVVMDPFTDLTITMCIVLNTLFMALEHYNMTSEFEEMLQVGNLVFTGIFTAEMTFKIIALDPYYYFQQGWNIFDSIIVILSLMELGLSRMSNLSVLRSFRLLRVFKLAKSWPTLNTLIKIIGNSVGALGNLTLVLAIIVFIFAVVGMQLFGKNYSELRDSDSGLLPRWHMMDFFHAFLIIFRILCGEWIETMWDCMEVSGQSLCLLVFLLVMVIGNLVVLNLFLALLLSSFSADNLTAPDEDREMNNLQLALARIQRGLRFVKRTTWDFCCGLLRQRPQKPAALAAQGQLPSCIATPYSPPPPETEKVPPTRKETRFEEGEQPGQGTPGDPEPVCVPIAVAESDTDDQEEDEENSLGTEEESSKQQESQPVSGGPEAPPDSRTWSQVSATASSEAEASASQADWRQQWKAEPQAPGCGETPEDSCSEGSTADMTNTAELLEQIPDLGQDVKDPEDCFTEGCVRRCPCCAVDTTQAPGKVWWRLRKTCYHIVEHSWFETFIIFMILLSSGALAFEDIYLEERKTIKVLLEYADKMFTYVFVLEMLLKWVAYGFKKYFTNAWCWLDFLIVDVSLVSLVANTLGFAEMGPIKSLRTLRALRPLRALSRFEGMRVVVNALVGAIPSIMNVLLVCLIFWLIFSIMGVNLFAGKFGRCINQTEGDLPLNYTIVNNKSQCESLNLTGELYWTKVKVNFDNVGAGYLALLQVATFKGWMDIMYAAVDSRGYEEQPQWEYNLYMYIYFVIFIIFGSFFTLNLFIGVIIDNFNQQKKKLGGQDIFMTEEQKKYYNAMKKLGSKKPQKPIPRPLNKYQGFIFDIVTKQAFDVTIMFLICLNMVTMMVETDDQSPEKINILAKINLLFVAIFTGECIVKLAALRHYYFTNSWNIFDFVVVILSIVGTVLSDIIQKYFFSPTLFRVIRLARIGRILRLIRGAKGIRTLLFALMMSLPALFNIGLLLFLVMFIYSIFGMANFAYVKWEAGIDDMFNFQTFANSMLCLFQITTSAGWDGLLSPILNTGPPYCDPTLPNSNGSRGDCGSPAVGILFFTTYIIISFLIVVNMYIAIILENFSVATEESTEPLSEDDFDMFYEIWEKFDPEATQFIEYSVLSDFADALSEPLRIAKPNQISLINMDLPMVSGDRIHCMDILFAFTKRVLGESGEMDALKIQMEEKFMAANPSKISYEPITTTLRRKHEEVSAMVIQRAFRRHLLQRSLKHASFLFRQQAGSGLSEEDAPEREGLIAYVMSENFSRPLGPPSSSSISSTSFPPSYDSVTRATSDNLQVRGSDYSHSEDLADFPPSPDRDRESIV
Method: as §1
(§2) Manual whole-cell patch-clamp experiments were performed at room temperature, with equipment as described in previous studies. Pipettes were pulled from Clark borosilicate glass capillaries with inner filament (GC150F-10, Harvard Apparatus, Holliston, MA, USA) and had typical resistances of 2–3 MΩ. Recordings were performed with a WPC-100 resistive feedback amplifier (ESF electronic, Göttingen, Germany) or an Axopatch 200B amplifier (Axon Instruments—Molecular Devices, San Jose, CA, USA) connected to a Digidata 1322A interface driven by the pClamp 8.2 Clampex module (Axon Instruments, part of Molecular Devices, San Jose, CA, USA). For different types of ion channel, we applied specific voltage-clamp protocols as follows: • - For hERG, a standard two-step activation protocol was used: holding at −70 mV, a 100 ms step at −50 mV used as current reference for measurements, a 2 s depolarizing step at +40 mV, followed by a 2 s step at −50 mV to elicit the peak hERG current by rapid recovery from inactivation, repeated sweeps at 10 s intervals, plus specific protocols to assess the voltage dependence of activation and inactivation, as described in Thomet et al., 2021 [11]. • - For hKv7.1 + minK, a general two-step activation protocol was used: holding at −110 mV, a 250 ms step at −80 mV with a brief (50 ms) step at −90 mV at the middle to monitor seal quality, a 3000 ms depolarizing step at +60 mV, followed by a 1000 ms step at −50 mV; repeated sweeps at 20 s intervals. • - For hCav1.2, a pharmacology protocol with holding at −80 mV, a first 100 ms step at −50 mV and a second 200 ms step at 0 mV, repeated sweeps at 20 s intervals with drug application after 5 sweeps if current levels were steady, plus an activation–inactivation protocol with holding at −80 mV, 1000 ms depolarizing steps from −80 to +50 mV in 10 mV increments, followed by 250 ms steps at +10 mV and a return to −80 mV; 14 sweeps at 20 s intervals. • - For hNav1.5, multiple voltage protocols were used, including the following: • - A standard pharmacology protocol with holding at −90 mV, a 20 ms step at −110 mV for seal monitoring, a 40 ms activation step at −10 mV, and repeated sweeps at 1 s intervals. […]

hNav1.5 [2] = biological target: T2, hNav1.5; assay: Whole-cell patch-clamp on HEK293T cells, late INa (CiPA-like protocol with ATX-II); type: cell-based
Method: as §1, §2

[3] = cited from earlier work; for healthy volunteers with QT interval shortening greater than 20 ms: study YKP3089C020, ref [9] p. 11

Structure (SMILES): NC(=O)O[C@@H](Cn1ncnn1)c1ccccc1Cl [cenobamate]
- IC50 (IKr (hERG)): 1870 µM
- IC50 (hKv7.1 + minK): > 200 µM
- inhibition at 200 µM (hKv7.1 + minK; cenobamate 200 µM, mean (SD), n = 8, not corrected for control rundown 23.66%, read-out: average inhibition of IKs plateau current at +60 mV): 36.7 ± 13%
- inhibition at 200 µM (hKv7.1 + minK; cenobamate 200 µM, read-out: estimated net average IKs inhibition (cenobamate 200 µM − control)): 13%
- average inhibition of IKs plateau current at +60 mV (hKv7.1 + minK; cenobamate 200 µM, mean (SD), n = 8, not corrected for control rundown 23.66%): 36.68 ± 13.02%
- inhibition at 10 µM (hNav1.5 [1]; HEK-293T, cenobamate 10 µM, read-out: % INa inhibition (peak), mean (Table S2)): 8.6%
- inhibition at 10 µM (hNav1.5 [1]; HEK-293T, cenobamate 10 µM, read-out: % INa inhibition (peak), single experiments (Table S2)): 8.58%
- inhibition at 40 µM (hNav1.5 [1]; HEK-293T, cenobamate 40 µM, read-out: % INa inhibition (peak), mean (Table S2)): 37.7%
- inhibition at 100 µM (hNav1.5 [1]; HEK-293T, cenobamate 100 µM, read-out: % INa inhibition (peak), mean (Table S2)): 49%
- inhibition at 100 µM (hNav1.5 [1]; HEK-293T, cenobamate 100 µM, read-out: % INa inhibition (peak), single experiments (Table S2)): 52.7%
- inhibition at 200 µM (hNav1.5 [1]; HEK-293T, cenobamate 200 µM, read-out: % INa inhibition (peak), mean (Table S2)): 69.9%
- inhibition at 200 µM (hNav1.5 [1]; HEK-293T, cenobamate 200 µM, standard protocol, step at -10 mV, initial set, mean (SD), n = 6, read-out: average inhibition of peak INa): 69.5%
- inhibition at 1000 µM (hNav1.5 [1]; HEK-293T, cenobamate 1000 µM, read-out: % INa inhibition (peak), mean (Table S2)): 89.3%
- inhibition at 1000 µM (hNav1.5 [1]; HEK-293T, cenobamate 1000 µM, read-out: % INa inhibition (peak), single experiments (Table S2)): 89.6%
- IC50 (hNav1.5 [1]; INaIC50 (model script), value entered in C++ script): 87.6 µM
- IC50 (hNav1.5 [1]; apparent IC50 for peak INa inhibition, Hill coefficient nH = 1, room temperature): 87.6 µM and < 100 µM
- % INa inhibition (peak), single experiments (Table S2) (hNav1.5 [1]; cenobamate 10 µM): 9.79% and 10.02% and 5.97%
- % INa inhibition (peak), single experiments (Table S2) (hNav1.5 [1]; cenobamate 40 µM): 36.42% and 24.23% and 44.79% and 44.54% and 38.53%
- % INa inhibition (peak), single experiments (Table S2) (hNav1.5 [1]; cenobamate 100 µM): 51.80% and 49.36% and 42.07%
- % INa inhibition (peak), single experiments (Table S2) (hNav1.5 [1]; cenobamate 200 µM): 64.55% and 87.37% and 54.65% and 52.32% and 72.86%
- voltage shifts of voltage dependence of activation and steady-state inactivation (hNav1.5 [1]; cenobamate 200 µM, both activation and inactivation): > 10 mV
- voltage dependence of peak INa inhibition (hNav1.5 [1]; cenobamate 200 µM, multiple depolarizing steps): virtually voltage-independent
- average inhibition of peak INa (hNav1.5 [1]; cenobamate 200 µM, standard protocol, step at -10 mV, initial set, mean (SD), n = 6): 69.53 ± 14.63%
- % INa inhibition, single experiments (Table S1) (hNav1.5 [1]; cenobamate 200 µM, step at -10 mV): 56.27% and 68.71% and 86.95% and 54.87% and 87.66% and 62.74%
- % INa inhibition (peak), single experiments (Table S2) (hNav1.5 [1]; cenobamate 1000 µM): 91.76% and 89.36% and 86.34%
- inhibition at 1 µM (hNav1.5 [2]; HEK-293T, cenobamate 1 µM, end of step at 0 mV, read-out: % INa inhibition (late), mean (Table S3)): 5.58%
- inhibition at 10 µM (hNav1.5 [2]; HEK-293T, cenobamate 10 µM, read-out: % INa inhibition (late), mean (Table S3)): 25.4%
- inhibition at 10 µM (hNav1.5 [2]; HEK-293T, cenobamate 10 µM, read-out: % INa inhibition (late), single experiments (Table S3)): 25.1%
- inhibition at 40 µM (hNav1.5 [2]; HEK-293T, cenobamate 40 µM, read-out: % INa inhibition (late), mean (Table S3)): 49.3%
- inhibition at 40 µM (hNav1.5 [2]; HEK-293T, cenobamate 40 µM, read-out: % INa inhibition (late), single experiments (Table S3)): 47.7%
- inhibition at 100 µM (hNav1.5 [2]; HEK-293T, cenobamate 100 µM, read-out: % INa inhibition (late), mean (Table S3)): 79.5%
- inhibition at 100 µM (hNav1.5 [2]; HEK-293T, cenobamate 100 µM, read-out: % INa inhibition (late), single experiments (Table S3)): 80.1%
- inhibition at 200 µM (hNav1.5 [2]; HEK-293T, cenobamate 200 µM, read-out: % INa inhibition (late), mean (Table S3)): 94.4%
- inhibition at 200 µM (hNav1.5 [2]; HEK-293T, cenobamate 200 µM, read-out: % INa inhibition (late), single experiments (Table S3)): 96.7%
- IC50 (hNav1.5 [2]; INaLIC50 (model script), value entered in C++ script): 46.5 µM
- IC50 (hNav1.5 [2]; apparent IC50 for late INa inhibition, ATX-II 20 nM or 100 nM, nH = 1): 46.5 µM
- % INa inhibition (late), single experiments (Table S3) (hNav1.5 [2]; cenobamate 1 µM): 9.80% and 4.35% and 2.59%
- % INa inhibition (late), single experiments (Table S3) (hNav1.5 [2]; cenobamate 10 µM): 27.99% and 16.75% and 31.85%
- % INa inhibition (late), single experiments (Table S3) (hNav1.5 [2]; cenobamate 40 µM): 42.71% and 49.53% and 57.45%
- % INa inhibition (late), single experiments (Table S3) (hNav1.5 [2]; cenobamate 100 µM): 91.98% and 72.79% and 79.43% and 73.06%
- % INa inhibition (late), single experiments (Table S3) (hNav1.5 [2]; cenobamate 200 µM): 94.40% and 94.64% and 86.94% and 99.56%
- healthy volunteers with QT interval shortening greater than 20 ms ([3]; 200 mg oral dose, 6–17% with placebo): 31%
- healthy volunteers with QT interval shortening greater than 20 ms ([3]; 500 mg): 66%
- QTc interval shortening ([3]; ref [9] pp. 11–12): > 20 ms
- QTc interval under cenobamate (not below) ([3]; ref [9] pp. 11–12): ≥ 300 ms
